According to patent US20040167199A1, “Methods of using and compositions comprising (-)-3-(3,4-dimethoxy-phenyl)-3-(1-oxo-1,3-dihydro-isoindol-2-yl)-propionamide” (Celgene Corporation, priority 2002, published 2004):
pIC50: −log10 of the molar value.

Columns and labels:
bovine PDE1 = test: PDE selectivity, single concentration, PDE1; format: biochemical; details: for PDE Specificity Ratio PDE1/PDE4: from above data
Protocol: (§1) The specificity of compounds for specific PDE's was assessed by testing at a single concentration (100 μM) against bovine PDE1, human PDE2, PDE3, and PDE5 from human platelets (Hidaka and Asano 1976, Biochem. Biophys. Acta 429:485, and Nicholsen et al. 1991, Trends Pharmaco. Sci. 12:19).

[1] = Pharmacokinetics after oral administration in female rats; details: rat, in vivo, 80 mg/kg oral in aqueous CMC
Excerpt: Table III presents plasma concentration data (ng/mL) taken at 0.5 hr., 1 hr., 2 hrs., 4 hrs., 7 hrs., 10 hrs. and 24 hrs. following the administration, Cmax, Tmax and AUC.

[2] = tested on: PDE3 from human platelets; test: PDE selectivity, single concentration, PDE3; format: biochemical; details: for PDE Specificity Ratio PDE3/PDE4: from above data
Protocol: as §1

[3] = tested on: LPS-induced TNF-α production from human PBMC; test: LPS-induced TNF-α production from human PBMC; format: cell-based; details: LPS 100 ng/ml, 18-20 hours, ELISA
Protocol: Lipopolysaccharide (LPS) is an endotoxin produced by gram-negative bacteria such as E. coli which induces production of many pro-inflammatory cytokines, including TNF-α In peripheral blood mononuclear cells (PBMC), the TNF-α produced in response to LPS is derived from monocytes, which comprise approximately 5-20% of the total PBMC. Compounds were tested for the ability to inhibit LPS-induced TNF-α production from human PBMC as previously described (Muller et al. 1996, J. Med Chem. 39:3238). PBMC from normal donors were obtained by Ficoll Hypaque (Pharmacia, Piscataway, N.J., USA) density centrifugation. Cells were cultured in RPMI (Life Technologies, Grand Island, N.Y., USA) supplemented with 10% AB± human serum (Gemini Bio-products, Woodland, Calif., USA), 2 mM L-glutamine, 100 U/ml penicillin, and 100 μg/ml streptomycin (Life Technologies).
PBMC (2×10^5 cells) were plated in 96-well flat-bottom Costar tissue culture plates (Coming, N.Y., USA) in triplicate. Cells were stimulated with LPS (Sigma, St. Louis, Mo., USA) at 100 ng/ml in the absence or presence of compounds. Compounds (Celgene Corp., Warren, N.J., USA) were dissolved in DMSO (Sigma) and further dilutions were done in culture medium immediately before use. The final DMSO concentration in all samples was 0.25%. Compounds were added to cells 1 hour before LPS stimulation. […]

[4] = tested on: IL-1β-induced TNF-α production from human PBMC; test: IL-1β-induced TNF-α production from human PBMC; format: cell-based; details: recombinant human IL-1β 50 ng/ml, 18 hours
Protocol: During the course of inflammatory diseases, TNF-α production is often stimulated by the cytokine IL-1β, rather than by bacterially derived LPS. Compounds are tested for the ability to inhibit EL-1β-induced TNF-α production from human PBMC as described above for LPS-induced TNF-α production, except that the PBMC are isolated from source leukocyte units (Sera-Tec Biologicals, North Brunswick, N.J., USA) by centrifugation on Ficoll-Paque Plus (Amersham Pharmacia, Piscataway, N.J., USA), plated in 96-well tissue culture plates at 3×10^5 cells/well in RPMI-1640 medium (BioWhittaker, Walkersville, Md., USA) containing 10% heat-inactivated fetal bovine serum (Hyclone), 2 mM L-glutamine, 100 U/ml penicillin, and […] (complete medium), pretreated with compounds at 10, 2, 0.4, 0.08, 0.016, 0.0032, 0.00064, and 0 μM in duplicate at a final DMSO concentration of 0.1% at 37° C. in a humidified incubator at 5% CO2 for 1 hour, then stimulated with 50 ng/ml recombinant human IL-1β (Endogen) for 18 hours.

[5] = target: T1, PDE5 from human platelets (Homo sapiens, UniProt O76074); test: PDE selectivity, single concentration, PDE5; format: biochemical; details: for PDE Specificity Ratio PDE5/PDE4: from above data; for inhibition at 100 µM: read-out: PDE5 (% inhib at 100 μM)
T1 construct: PDE3, and PDE5 from human platelets; from tissue; host or cells: human platelets
Protocol: as §1

[6] = tested on: PDE4 enzyme purified from U937 human monocytic cells; test: PDE4 inhibition (enzyme purified from U937 cells); format: biochemical; details: 1 μM cAMP, 30 min at 30° C.
Protocol: PDE4 enzyme was purified from U937 human monocytic cells by gel filtration chromatography as previously described (Muller et al. 1998, Bioorg. & Med Chem Lett 8:2669-2674). Phosphodiesterase reactions were carried out in 50 mM Tris HCl pH 7.5, 5 mM MgCl2, 1 μM cAMP, 10 nM [^311)-cAMP for 30 min at 30° C., terminated by boiling, treated with 1 mg/ml snake venom, and separated using AG-IXS ion exchange resin (BioRad) as described (Muller et al. 1998, Bioorg. & Med Chem Lett 8:2669-2674). Reactions consumed less than 15% of available substrate.

human PDE2 = human PDE2 (Homo sapiens, UniProt O00408); test: PDE selectivity, single concentration, PDE2; format: biochemical
Protocol: as §1

human PDE2, sequence (O00408 whole entry): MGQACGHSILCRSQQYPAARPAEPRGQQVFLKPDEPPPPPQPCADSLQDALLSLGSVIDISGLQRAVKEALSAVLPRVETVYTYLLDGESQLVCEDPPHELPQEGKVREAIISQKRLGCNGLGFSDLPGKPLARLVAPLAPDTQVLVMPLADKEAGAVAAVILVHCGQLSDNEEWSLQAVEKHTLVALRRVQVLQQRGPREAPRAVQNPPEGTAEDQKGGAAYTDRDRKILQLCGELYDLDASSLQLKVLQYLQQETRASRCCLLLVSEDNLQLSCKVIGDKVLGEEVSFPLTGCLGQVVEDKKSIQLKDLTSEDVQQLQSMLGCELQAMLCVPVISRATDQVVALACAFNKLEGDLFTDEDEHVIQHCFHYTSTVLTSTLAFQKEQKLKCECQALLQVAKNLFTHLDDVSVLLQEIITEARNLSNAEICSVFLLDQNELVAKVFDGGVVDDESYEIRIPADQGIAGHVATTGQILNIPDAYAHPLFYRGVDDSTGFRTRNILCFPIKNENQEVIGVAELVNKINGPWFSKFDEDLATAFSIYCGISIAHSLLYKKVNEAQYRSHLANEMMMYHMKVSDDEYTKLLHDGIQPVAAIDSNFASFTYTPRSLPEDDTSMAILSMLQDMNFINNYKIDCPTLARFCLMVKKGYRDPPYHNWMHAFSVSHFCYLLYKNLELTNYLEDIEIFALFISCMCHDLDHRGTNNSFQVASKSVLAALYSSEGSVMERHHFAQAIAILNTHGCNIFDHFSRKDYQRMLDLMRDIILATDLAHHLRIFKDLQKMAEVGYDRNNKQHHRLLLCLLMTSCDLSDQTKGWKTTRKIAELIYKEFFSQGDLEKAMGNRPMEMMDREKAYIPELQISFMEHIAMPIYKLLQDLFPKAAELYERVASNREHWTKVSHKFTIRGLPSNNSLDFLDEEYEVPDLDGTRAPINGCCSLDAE

| SMILES | PDE1 (% inhib at 100 μM) (bovine PDE1) [%] | PDE Specificity Ratio PDE1/PDE4 (bovine PDE1) | PDE3 (% inhib at 100 μM) [2] [%] | PDE Specificity Ratio PDE3/PDE4 [2] | pIC50 [3] | pIC50 [4] | PDE Specificity Ratio PDE5/PDE4 [5] [fold] | inhibition at 100 µM [5] [%] | pIC50 [6] | also measured |
| --- | --- | --- | --- | --- | --- | --- | --- | --- | --- | --- |
| COc1ccc(C(CC(N)=O)N2Cc3ccccc3C2=O)cc1OC (racemic) [Racemic Compound, 3-(3,4-dimethoxy-phenyl)-3-(1-oxo-1,3-dihydro-isoindol-2-yl)-propionamide] | 20 | >4.8 fold | 51 | ˜4.8 fold | 4.68 | 4.80 | >4.8 | 14 | 4.82 | concentration at 0 h ([1]; 0 hour, read-out: plasma concentration): 0 ng/mL; AUC [1]: 44200 ng·h/mL; Cmax [1]: 4910 ng/mL; Tmax [1]: 2 h; concentration at 0.5 h ([1]; 0.5 hour, read-out: plasma concentration): 3900 ng/mL; concentration at 1 h ([1]; 1 hour, read-out: plasma concentration): 4600 ng/mL; concentration at 2 h ([1]; 2 hours, read-out: plasma concentration): 4120 ng/mL; concentration at 4 h ([1]; 4 hours, read-out: plasma concentration): 2980 ng/mL; concentration at 7 h ([1]; 7 hours, read-out: plasma concentration): 2520 ng/mL; concentration at 10 h ([1]; 10 hours, read-out: plasma concentration): 2060 ng/mL; concentration at 24 h ([1]; 24 hours, read-out: plasma concentration): 9.2 ng/mL |
| COc1ccc(C(CC(N)=O)N2Cc3ccccc3C2=O)cc1OC (single isomer, unassigned; (+)) [Compound B, (+)-3-(3,4-dimethoxy-phenyl)-3-(1-oxo-1,3-dihydro-isoindol-2-yl)-propionamide] | 47 | ˜1 fold | 50 | ˜1 fold | 4.00 | 4.07 | >1 | 5 | 4.17 | PDE Specificity Ratio PDE2/PDE4 (human PDE2; from above data): >1 fold; inhibition at 100 µM (human PDE2; read-out: PDE2 (% inhib at 100 μM)): 22% |
